Tests used:
[1] = Hepatocyte intrinsic clearance assay, human hepatocytes; format: in vitro ADME; conditions: male, cryopreserved pooled human hepatocytes; Human Hepatocytes, 1 μM test compound
Text: The liver is an important organ in the body for drug metabolism. This Example describes hepatocyte intrinsic clearance assays using both human and mouse hepatocytes to evaluate the metabolic stability of the indole compounds disclosed herein. The parameters measured include t1/2 (half-life), CLint (intrinsic clearance), and EH (hepatic extraction ratio).
Testosterone (Lot FE111011-01) was obtained from Cerilliant (Round Rock, TX). 7-hydroxycoumarin (Lot 11631ED) was obtained from Sigma Aldrich (St. Louis, MO). Cryopreserved human hepatocytes pooled from ten donor males (X008001), cryopreserved male IRC/CD-1 mouse hepatocytes (M005052), INVITROGRO HI Medium (incubation), and INVITROGRO HT Medium (thawing) were obtained from Bioreclamation IVT (Baltimore, MD). All solvents were obtained from commercial sources and used without further purification.
Each test compound was prepared as a 1 mM stock solution in DMSO. A 2 μM solution of test compound and positive controls were prepared in INVITROGRO HI Medium (incubation). These solutions were pre-warmed in a sterile incubator set to maintain 37° C., 5% CO2, and 98% humidity. Cryopreserved hepatocytes were prepared at a concentration of 2×10^6 living cells/mL in incubation media and pre-warmed in the incubator. The compound solutions and hepatocyte mixtures were then combined at a ratio of 1:1 (v:v). The final volume of the reaction mixture was 750 μL, containing 1 μM test compound (10 μM for 7-hydroxycoumarin) and […]. The reaction mixture was placed in the incubator on a plate shaker. After 0, 15, 30, 60, 90, and 120 minutes of incubation, 100 μL of reaction mixtures were removed from the incubation plate and mixed with 150 μL of ice-cold acetonitrile in a designated well of a 96-well crash plate. The 96-well crash plate was placed on ice for 15 min, and samples were centrifuged (3,600 RPM, 10 min, 4° C.) to precipitate protein. The supernatants were diluted 1:1 (v:v) with water containing 0.15 μM verapamil and/or 1 μM tolbutamide (internal standards for positive and negative modes, respectively) in a 96-well shallow injection plate. This plate was sealed for LC-MS analysis. All measurements were done in duplicate.
The residual compound remaining (% R) was determined from LC-MS peak areas by comparison to the zero time point. Metabolic half-life (t1/2) and intrinsic clearance (CLint) values were calculated from the slope of the plot of ln (% R) vs. time and the concentration of hepatocytes present in the incubation. Percent remaining at 60 minutes was calculated by plugging in the 60 minute value into the slope equation generated by the percent remaining time points.
In vivo hepatic clearance CLH was calculated using the well stirred liver model according to the following equation:
[formula] where QH is the total liver blood flow, fu is unbound fraction of the drug, and CL′int is defined as follows: CL′int=CLint×(10^6 cells/g of liver weight)×(g liver weight/kg of body weight). In the first approximation, used in this study, fu=1.
Hepatic extraction ratio EH was calculated using the following equation:
[formula] Corresponding physiological parameters used in calculations for all species are shown below in Table 5.

[2] = system: CYP1A1 in mouse Hepal-6 cells; assay: EROD assay (7-ethoxy-resorufin-O-deethylase), mouse Hepa1-6 cells; format: cell-based
Experimental: (§1) CYP1A1 induction is under the control of the AhR signaling pathway. This Example describes an in vitro assay (7-ethoxy-resorufin-O-deethylase (EROD) assay) that evaluated the AhR modulating activities of the indole compounds described herein. In this assay, the indole compounds were incubated with human HepG2 cells or mouse Hepal-6 cells. The activity of CYP1A1 in the cells was measured by the conversion of substrate 7-ethoxyresorufin, with the readout being a fluorescence signal associated with the conversion product. The EC50 values of the indole compounds as well as the maximum […] induced by them in the assay were determined.
(§2) Human HepG2 cells were obtained from Sigma Aldrich (Catalog 85011430-1VL). Mouse Hepal-6 cells also were obtained from Sigma Aldrich (Catalog 92110305-1V).
(§3) Human HepG2 and Mouse Hepal-6 cells were grown to 60-80% confluency in tissue culture flasks, lifted with non-enzymatic cell dissociation solution (cell stripper), seeded in a 384-well plate at 5,000 cells per well, treated with the test compounds, and incubated for 20 hours overnight at 37° C. The treatment medium was removed and a solution of substrate 7-ethoxyresorufin (ETX) was added to initiate the reaction. The plate was incubated at 37° C. for 30 minutes. The reaction was subsequently terminated by adding tempered methanol. Fluorescent emission was measured at 590 nm with excitation at 530 nm in a FLEXSTATION III instrument (Molecular Devices).

[3] = system: CYP1A1 in human HepG2 cells; assay: EROD assay (7-ethoxy-resorufin-O-deethylase), human HepG2 cells; format: cell-based; set-up: key to activity group based on EC50 values, in the order of increasing activity: (1) active; (2) more active; (3) most active; conditions: for activity group based on EC50 values, in the order of increasing activity: human EROD assay, oxadiazole derivatives of ITE
Experimental: as §1, §2, §3

Compound | half-life at 1 μM [1] [h] | activity in the mouse EROD assay, in words [2] | activity in the human EROD assay compared to ARI-001 / ARI-002, in words ([3]; human HepG2 cells) | activity group based on EC50 values, in the order of increasing activity [3] | EC50 ([2]; EROD assay, 20 hours treatment) [nM] | EC50 ([3]; EROD assay, human HepG2 cells, 20 hours treatment) [nM]
CNC(=O)c1csc(C(=O)c2c[nH]c3ccc(Cl)cc23)n1 [ARI-049, 2-(5-chloro-1H-indole-3-carbonyl)-N-methylthiazole-4-carboxamide] | 3.88 | less active | less active |  |  | 
Cc1noc(-c2csc(C(=O)c3c[nH]c4ccccc34)n2)n1 [ARI-031, (1H-indol-3-yl)(4-(3-methyl-1,2,4-oxadiazol-5-yl)thiazol-2-yl)methanone] | 16.1 |  | significantly more (about 4 to 900 times more) active than ARI-001 | active |  | 
CCC(=O)c1csc(C(=O)c2c[nH]c3c(F)cccc23)n1 [ARI-140, 1-(2-(7-fluoro-1H-indole-3-carbonyl)thiazol-4-yl)propan-1-one] | 3.33 | less active than ARI-002 |  |  | 19.5 | 0.7
O=C(c1nc(-c2nnco2)cs1)c1c[nH]c2ccccc12 [ARI-056, (4-(1,3,4-oxadiazol-2-yl)thiazol-2-yl)(1H-indol-3-yl)methanone] | 0.653 |  | significantly more (about 4 to 900 times more) active than ARI-001 | active |  | 
NCc1nc(-c2csc(C(=O)c3c[nH]c4c(F)cccc34)n2)no1 [ARI-146, (4-(5-(aminomethyl)-1,2,4-oxadiazol-3-yl)thiazol-2-yl)(7-fluoro-1H-indol-3-yl)methanone] | 6.23 |  |  |  |  | 
Cc1nc(-c2csc(C(=O)c3c[nH]c4ccccc34)n2)no1 [ARI-030, (1H-indol-3-yl)(4-(5-methyl-1,2,4-oxadiazol-3-yl)thiazol-2-yl)methanone] | 6.31 |  | significantly more (about 4 to 900 times more) active than ARI-001 | active |  | 
Cc1nnc(-c2csc(C(=O)c3c[nH]c4ccccc34)n2)o1 [ARI-060, (1H-indol-3-yl)(4-(5-methyl-1,3,4-oxadiazol-2-yl)thiazol-2-yl)methanone] | 4.55 |  | significantly more (about 4 to 900 times more) active than ARI-001 | active |  | 
Nc1nnc(-c2csc(C(=O)c3c[nH]c4ccccc34)n2)o1 [ARI-083, (4-(5-amino-1,3,4-oxadiazol-2-yl)thiazol-2-yl)(1H-indol-3-yl)methanone] | 10.8 |  | significantly more (about 4 to 900 times more) active than ARI-001 | more active |  | 
Nc1nnc(-c2csc(C(=O)c3c[nH]c4ccccc34)n2)s1 [ARI-090, (4-(5-amino-1,3,4-thiadiazol-2-yl)thiazol-2-yl)(1H-indol-3-yl)methanone] | 2.19 |  | significantly more (about 4 to 900 times more) active than ARI-001 | more active |  | 
Nc1nnc(-c2csc(C(=O)c3c[nH]c4ccc(F)cc34)n2)o1 [ARI-148, (4-(5-amino-1,3,4-oxadiazol-2-yl)thiazol-2-yl)(5-fluoro-1H-indol-3-yl)methanone] | 4.7 |  | significantly more (about 4 to 900 times more) active than ARI-001 | more active |  | 
